According to US10757941B2, “Microbiocidal oxadiazole derivatives” (SYNGENTA PARTICIPATIONS AG, priority 2016, dated 2020):

Tests used:
[1] = test system: Puccinia recondita f. Sp. Tritici; assay: Fungicidal activity against Puccinia recondita f. sp. tritici / wheat / leaf disc preventative (brown rust); format: in vivo; conditions: foliar, 200 ppm in the applied formulation, wheat leaf segments cv. Kanzler, preventative (inoculated 1 day after application), assessed 7 to 9 days after application, compared to untreated, read-out: disease control
Description: Leaf disks or leaf segments of various plant species are cut from plants grown in a greenhouse. The cut leaf disks or segments are placed in multiwell plates (24-well format) onto water agar. The leaf disks are sprayed with a test solution before (preventative) or after (curative) inoculation. Compounds to be tested are prepared as DMSO solutions (max. 10 mg/ml) which are diluted to the appropriate concentration with 0.025% Tween20 just before spraying. The inoculated leaf disks or segments are incubated under defined conditions (temperature, relative humidity, light, etc.) according to the respective test system. A single evaluation of disease level is carried out 3 to 14 days after inoculation, depending on the pathosystem. Percent disease control relative to the untreated check leaf disks or segments is then calculated. Example 1: Fungicidal Activity Against Puccinia recondita f. Sp. Tritici/Wheat/Leaf Disc Preventative (Brown Rust) Wheat leaf segments cv. Kanzler were placed on agar in multiwell plates (24-well format) and sprayed with the formulated test compound diluted in water. The leaf disks were inoculated with a spore suspension of the fungus 1 day after application. The inoculated leaf segments were incubated at 19° C. and 75% relative humidity (rh) under a light regime of 12 hours light/12 hours darkness in a climate cabinet and the activity of a compound was assessed as percent disease control compared to untreated when an appropriate level of disease damage appears in untreated check leaf segments (7 to 9 days after application). The following compounds at 200 ppm in the applied formulation give at least 80% disease control in this test when compared to untreated control leaf disks under the same conditions, which show extensive disease development.

[2] = test system: Puccinia recondita f. Sp. Tritici; assay: Fungicidal activity against Puccinia recondita f. sp. tritici / wheat / leaf disc curative (brown rust); format: in vivo; conditions: foliar, 200 ppm in the applied formulation, wheat leaf segments cv. Kanzler, curative (applied 1 day after inoculation), assessed 6 to 8 days after application, compared to untreated, read-out: disease control
Description: Leaf disks or leaf segments of various plant species are cut from plants grown in a greenhouse. The cut leaf disks or segments are placed in multiwell plates (24-well format) onto water agar. The leaf disks are sprayed with a test solution before (preventative) or after (curative) inoculation. Compounds to be tested are prepared as DMSO solutions (max. 10 mg/ml) which are diluted to the appropriate concentration with 0.025% Tween20 just before spraying. The inoculated leaf disks or segments are incubated under defined conditions (temperature, relative humidity, light, etc.) according to the respective test system. A single evaluation of disease level is carried out 3 to 14 days after inoculation, depending on the pathosystem. Percent disease control relative to the untreated check leaf disks or segments is then calculated. Example 2: Fungicidal Activity Against Puccinia recondita f. Sp. Tritici/Wheat/Leaf Disc Curative (Brown Rust) Wheat leaf segments cv. Kanzler are placed on agar in multiwell plates (24-well format). The leaf segments are then inoculated with a spore suspension of the fungus. Plates were stored in darkness at 19° C. and 75% relative humidity. The formulated test compound diluted in water was applied 1 day after inoculation. The leaf segments were incubated at 19° C. and 75% relative humidity under a light regime of 12 hours light/12 hours darkness in a climate cabinet and the activity of a compound was assessed as percent disease control compared to untreated when an appropriate level of disease damage appears in untreated check leaf segments (6 to 8 days after application). The following compounds at 200 ppm in the applied formulation give at least 80% disease control in this test when compared to untreated control leaf disks under the same conditions, which show extensive disease development.

Phakopsora pachyrhizi = assay: Fungicidal activity against Phakopsora pachyrhizi / soybean / leaf disc preventative (Asian soybean rust); format: in vivo; conditions: foliar, 200 ppm in the applied formulation, soybean leaf disks, preventative (inoculated one day after application), assessed 12 to 14 days after application, compared to untreated, read-out: disease control
Description: Leaf disks or leaf segments of various plant species are cut from plants grown in a greenhouse. The cut leaf disks or segments are placed in multiwell plates (24-well format) onto water agar. The leaf disks are sprayed with a test solution before (preventative) or after (curative) inoculation. Compounds to be tested are prepared as DMSO solutions (max. 10 mg/ml) which are diluted to the appropriate concentration with 0.025% Tween20 just before spraying. The inoculated leaf disks or segments are incubated under defined conditions (temperature, relative humidity, light, etc.) according to the respective test system. A single evaluation of disease level is carried out 3 to 14 days after inoculation, depending on the pathosystem. Percent disease control relative to the untreated check leaf disks or segments is then calculated. Example 3: Fungicidal Activity Against Phakopsora pachyrhizi/Soybean/Leaf Disc Preventative (Asian Soybean Rust) Soybean leaf disks are placed on water agar in multiwell plates (24-well format) and sprayed with the formulated test compound diluted in water. One day after application leaf discs are inoculated by spraying a spore suspension on the lower leaf surface. After an incubation period in a climate cabinet of 24-36 hours in darkness at 20° C. and 75% rh leaf disc are kept at 20° C. with 12 h light/day and 75% rh. The activity of a compound is assessed as percent disease control compared to untreated when an appropriate level of disease damage appears in untreated check leaf disks (12 to 14 days after application). The following compounds at 200 ppm in the applied formulation give at least 80% disease control in this test when compared to untreated control leaf disks under the same conditions, which show extensive disease development.

[3] = test system: Glomerella lagenarium (Colletotrichum lagenarium); assay: Fungicidal activity against Glomerella lagenarium (Colletotrichum lagenarium) liquid culture / cucumber / preventative (anthracnose); format: cell-based; conditions: Colletotrichum orbiculare; 20 ppm in the applied formulation; liquid culture in PDB, 24° C.; inhibition of growth measured photometrically 3 to 4 days after application; compared to untreated; read-out: disease control
Description: Mycelia fragments or conidia suspensions of a fungus prepared either freshly from liquid cultures of the fungus or from cryogenic storage, are directly mixed into nutrient broth. DMSO solutions of the test compound (max. 10 mg/ml) are diluted with 0.025% Tween20 by a factor of 50 and 10 μl of this solution is pipetted into a microtiter plate (96-well format). The nutrient broth containing the fungal spores/mycelia fragments is then added to give an end concentration of the tested compound. The test plates are incubated in the dark at 24° C. and 96% relative humidity. The inhibition of fungal growth is determined photometrically after 2 to 7 days, depending on the pathosystem, and percent antifungal activity relative to the untreated check is calculated. Example 4: Fungicidal Activity Against Glomerella lagenarium (Colletotrichum lagenarium) Liquid Culture/Cucumber/Preventative (Anthracnose) Conidia of the fungus from cryogenic storage are directly mixed into nutrient broth (PDB—potato dextrose broth). After placing a (DMSO) solution of test compound into a microtiter plate (96-well format), the nutrient broth containing the fungal spores is added. The test plates are incubated at 24° C. and the inhibition of growth is measured photometrically 3 to 4 days after application. The following compounds at 20 ppm in the applied formulation give at least 80% disease control in this test when compared to untreated control under the same conditions, which show extensive disease development.

Uromyces viciae-fabael = assay: Fungicidal activity against Uromyces viciae-fabae / field bean / leaf disc preventative (faba-bean rust); format: in vivo; conditions: foliar, 288 h, 100 ppm in the applied formulation, field bean leaf discs, preventative (inoculated two hours after application), assessed 12 days after application, compared to untreated, read-out: disease control
Description: Leaf disks or leaf segments of various plant species are cut from plants grown in a greenhouse. The cut leaf disks or segments are placed in multiwell plates (24-well format) onto water agar. The leaf disks are sprayed with a test solution before (preventative) or after (curative) inoculation. Compounds to be tested are prepared as DMSO solutions (max. 10 mg/ml) which are diluted to the appropriate concentration with 0.025% Tween20 just before spraying. The inoculated leaf disks or segments are incubated under defined conditions (temperature, relative humidity, light, etc.) according to the respective test system. A single evaluation of disease level is carried out 3 to 14 days after inoculation, depending on the pathosystem. Percent disease control relative to the untreated check leaf disks or segments is then calculated. Example 5: Fungicidal Activity Against Uromyces viciae-fabael Field Bean/Leaf Disc Preventative (Faba-Bean Rust) Field bean leaf discs are placed on water agar in multiwell plates (96-well format) and 10 μl of the formulated test compound diluted in acetone and a spreader pipetted onto the leaf disc. Two hours after application leaf discs are inoculated by spraying a spore suspension on the lower leaf surface. The leaf discs are incubated in a climate cabinet at 22° C. with 18 hour day and 70% relative humidity. The activity of a compound is assessed as percent disease control compared to untreated when an appropriate level of disease damage appears in untreated check leaf disks (12 days after application). The following compounds at 100 ppm in the applied formulation give at least 80% disease control in this test when compared to untreated control leaf discs under the same conditions, which show extensive disease development.

O=C(NCC1COCCO1)c1ccc(-c2noc(C(F)(F)F)n2)c(F)c1 (centres unmarked) [Compound 1.12, N-(1,4-dioxan-2-ylmethyl)-3-fluoro-4-[5-(trifluoromethyl)-1,2,4-oxadiazol-3-yl]benzamide]
≥ 80%: pest or weed control at 200 ppm [1] | pest or weed control at 200 ppm [2] | pest or weed control at 200 ppm (Phakopsora pachyrhizi) | inhibition of growth at 20 ppm [3] | pest or weed control at 100 ppm (Uromyces viciae-fabael)

O=C(NCC1CCOC1)c1ccc(-c2noc(C(F)(F)F)n2)c(F)c1 (centres unmarked) [Compound 1.14, 3-fluoro-N-(tetrahydrofuran-3-ylmethyl)-4-[5-(trifluoromethyl)-1,2,4-oxadiazol-3-yl]benzamide]
≥ 80%: pest or weed control at 200 ppm [1] | pest or weed control at 200 ppm [2] | pest or weed control at 200 ppm (Phakopsora pachyrhizi) | inhibition of growth at 20 ppm [3] | pest or weed control at 100 ppm (Uromyces viciae-fabael)

COCCN(Cc1ccccc1)C(=O)c1ccc(-c2noc(C(F)(F)F)n2)c(F)c1 [Compound 1.16, N-benzyl-3-fluoro-N-(2-methoxyethyl)-4-[5-(trifluoromethyl)-1,2,4-oxadiazol-3-yl]benzamide]
≥ 80%: pest or weed control at 200 ppm [1] | pest or weed control at 200 ppm [2] | pest or weed control at 200 ppm (Phakopsora pachyrhizi) | inhibition of growth at 20 ppm [3] | pest or weed control at 100 ppm (Uromyces viciae-fabael)

O=C(NCC1CC1)c1ccc(-c2noc(C(F)(F)F)n2)c(F)c1 [Compound 1.20, N-(cyclo-propylmethyl)-3-fluoro-4-[5-(trifluoromethyl)-1,2,4-oxadiazol-3-yl]benzamide]
≥ 80%: pest or weed control at 200 ppm [1] | pest or weed control at 200 ppm [2] | pest or weed control at 200 ppm (Phakopsora pachyrhizi) | inhibition of growth at 20 ppm [3]

CC(NC(=O)c1ccc(-c2noc(C(F)(F)F)n2)c(F)c1)C1CC1 (centres unmarked) [Compound 1.25, N-(1-cyclopropylethyl)-3-fluoro-4-[5-(trifluoromethyl)-1,2,4-oxadiazol-3-yl]benzamide]
≥ 80%: pest or weed control at 200 ppm [1] | pest or weed control at 200 ppm [2] | pest or weed control at 200 ppm (Phakopsora pachyrhizi) | inhibition of growth at 20 ppm [3] | pest or weed control at 100 ppm (Uromyces viciae-fabael)

O=C(NC1(C2CC2)CC1)c1ccc(-c2noc(C(F)(F)F)n2)c(F)c1 [Compound 1.27, N-(1-cyclopropyl-cyclopropyl)-3-fluoro-4-[5-(trifluoromethyl)-1,2,4-oxadiazol-3-yl]benzamide]
≥ 80%: pest or weed control at 200 ppm [1] | pest or weed control at 200 ppm [2] | pest or weed control at 200 ppm (Phakopsora pachyrhizi) | inhibition of growth at 20 ppm [3] | pest or weed control at 100 ppm (Uromyces viciae-fabael)

Cc1ccc(CNC(=O)c2ccc(-c3noc(C(F)(F)F)n3)c(F)c2)o1 [Compound 1.28, 3-fluoro-N-[(5-methyl-2-furyl)methyl]-4-[5-(trifluoromethyl)-1,2,4-oxadiazol-3-yl]benzamide]
≥ 80%: pest or weed control at 200 ppm [1] | pest or weed control at 200 ppm [2] | pest or weed control at 200 ppm (Phakopsora pachyrhizi) | inhibition of growth at 20 ppm [3] | pest or weed control at 100 ppm (Uromyces viciae-fabael)

O=C(NCc1ccco1)c1ccc(-c2noc(C(F)(F)F)n2)c(F)c1 [Compound 1.31, 3-fluoro-N-(2-furylmethyl)-4-[5-(trifluoromethyl)-1,2,4-oxadiazol-3-yl]benzamide]
≥ 80%: pest or weed control at 200 ppm [1] | pest or weed control at 200 ppm [2] | pest or weed control at 200 ppm (Phakopsora pachyrhizi) | inhibition of growth at 20 ppm [3] | pest or weed control at 100 ppm (Uromyces viciae-fabael)

O=C(NCCc1cccs1)c1ccc(-c2noc(C(F)(F)F)n2)c(F)c1 [Compound 1.35, 3-fluoro-N-[2-(2-thienyl)ethyl]-4-[5-(trifluoromethyl)-1,2,4-oxadiazol-3-yl]benzamide]
≥ 80%: pest or weed control at 200 ppm [1] | pest or weed control at 200 ppm [2] | pest or weed control at 200 ppm (Phakopsora pachyrhizi) | inhibition of growth at 20 ppm [3] | pest or weed control at 100 ppm (Uromyces viciae-fabael)

COC(CN(C)C(=O)c1ccc(-c2noc(C(F)(F)F)n2)c(F)c1)OC [Compound 1.36, N-(2,2-dimethoxyethyl)-3-fluoro-N-methyl-4-[5-(trifluoromethyl)-1,2,4-oxadiazol-3-yl]benzamide]
≥ 80%: pest or weed control at 200 ppm [1] | pest or weed control at 200 ppm [2] | pest or weed control at 200 ppm (Phakopsora pachyrhizi) | inhibition of growth at 20 ppm [3] | pest or weed control at 100 ppm (Uromyces viciae-fabael)

CCCN(CC1CC1)C(=O)c1ccc(-c2noc(C(F)(F)F)n2)c(F)c1 [Compound 1.41, N-(cyclopropyl-methyl)-3-fluoro-N-propyl-4-[5-(trifluoromethyl)-1,2,4-oxadiazol-3-yl]benzamide]
≥ 80%: pest or weed control at 200 ppm [2] | pest or weed control at 200 ppm (Phakopsora pachyrhizi) | inhibition of growth at 20 ppm [3] | pest or weed control at 100 ppm (Uromyces viciae-fabael)
